According to PubChem BioAssay AID256 (DTP/NCI, 2004):
Toxic doses and inconclusive results are not listed. The calls were made as follows: active = survival T/C of 150% or more; inactive = T/C below 125% in these data.

System: CD2F1 mice, L1210 leukemia ip, survival T/C
Experiment: NCI In Vivo Anticancer Drug Screen. Data for tumor model L1210 Leukemia (intraperitoneal) in CD2F1 (CDF1) mice
Conditions: endpoint: mean survival time, higher = longer survival
Summary of the method: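 Vehicle-treated tumor-bearing mice served as controls (C) for compound-treated mice (T). Reported figure is T divided by C.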

[1] = dose: 100.0 mg/kg/injection, schedule: Q01DX009 (ip), vehicle: saline with Tween-80
[2] = dose: 75.0 mg/kg/injection, schedule: Q01DX001 (ip), vehicle: saline
[3] = dose: 50.0 mg/kg/injection, schedule: Q01DX009 (ip), vehicle: saline with Tween-80
[4] = dose: 200.0 mg/kg/injection, schedule: Q01DX009 (ip), vehicle: saline with Tween-80
[5] = dose: 100.0 mg/kg/injection, schedule: Q01DX001 (ip), vehicle: saline with Tween-80
[6] = dose: 200.0 mg/kg/injection, schedule: Q01DX001 (ip), vehicle: saline with Tween-80
[7] = dose: 400.0 mg/kg/injection, schedule: Q01DX001 (ip), vehicle: saline with Tween-80
[8] = dose: 100.0 mg/kg/injection, schedule: Q04DX003 (ip), vehicle: saline with Tween-80
[9] = dose: 200.0 mg/kg/injection, schedule: Q04DX003 (ip), vehicle: saline with Tween-80

Measured: T/C

OC(C=C(C(F)(F)F)C(F)(F)F)c1cccs1 (configuration not stated)
inactive: [1] 95 % of control

CCCCCCCCCCCCCCCCCC(=O)N1CC[N+](C)(C)CC1
inactive: [2] 101 % of control | dose: 150.0 mg/kg/injection, schedule: Q01DX001 (ip), vehicle: saline 100 % of control | dose: 300.0 mg/kg/injection, schedule: Q01DX001 (ip), vehicle: saline 107 % of control

OCC#CC1CCCCC1
inactive: [3] 107 % of control | [1] 107 % of control | [4] 101 % of control

CC(C(=O)c1ccccc1)C(N[N+](C)(C)C)c1ccccc1 (configuration not stated)
inactive: dose: 25.0 mg/kg/injection, schedule: Q04DX003 (ip), vehicle: saline with Tween-80 96 % of control

O=C(c1ccccc1)C1OC1(CCl)c1ccccc1 (configuration not stated)
inactive: [5] 106 % of control | [6] 90 % of control | [7] 86 % of control

CCCNCCNc1ccc(NCCNCCC)c2c1C(=O)c1ccccc1C2=O
inactive: dose: 4.0 mg/kg/injection, schedule: Q01DX009 (ip), vehicle: acid diluted with saline 100 % of control | dose: 8.0 mg/kg/injection, schedule: Q01DX009 (ip), vehicle: acid diluted with saline 110 % of control | dose: 16.0 mg/kg/injection, schedule: Q01DX009 (ip), vehicle: acid diluted with saline 110 % of control | dose: 32.0 mg/kg/injection, schedule: Q01DX009 (ip), vehicle: acid diluted with saline 93 % of control

Cc1cccc(CC(F)F)c1
inactive: dose: 50.0 mg/kg/injection, schedule: Q04DX003 (ip), vehicle: saline with Tween-80 109 % of control | [5] 104 % of control | [8] 97 % of control | [6] 103 % of control | [9] 96 % of control

CC(CN=Cc1ccccc1[O-])N=Cc1ccccc1[O-].[O]=[V] (configuration not stated)
inactive: dose: 5.0 mg/kg/injection, schedule: Q04DX003 (ip), vehicle: saline with Tween-80 90 % of control | dose: 10.0 mg/kg/injection, schedule: Q04DX003 (ip), vehicle: saline with Tween-80 94 % of control | dose: 20.0 mg/kg/injection, schedule: Q04DX003 (ip), vehicle: saline with Tween-80 90 % of control

COc1ccc(C2C3CN(C4CCCCC4)C(=O)C3(O)NN2C)cc1 (configuration not stated)
inactive: [5] 91 % of control | [6] 88 % of control | [7] 91 % of control

CC1(CO)C2CCC(CC2)C1CO (configuration not stated)
inactive: [3] 102 % of control | [5] 95 % of control | [1] 96 % of control | [6] 94 % of control | [4] 96 % of control

CC(=O)N/C(=C/c1ccccc1)C(=O)NC(C)(C)C
inactive: [8] 96 % of control | [9] 99 % of control | dose: 400.0 mg/kg/injection, schedule: Q04DX003 (ip), vehicle: saline with Tween-80 89 % of control

Cc1cc(C)[nH]c(=S)n1.[Pd]
inactive: dose: 3.12 mg/kg/injection, schedule: Q04DX003 (ip), vehicle: saline 97 % of control | dose: 6.25 mg/kg/injection, schedule: Q04DX003 (ip), vehicle: saline 102 % of control | dose: 12.5 mg/kg/injection, schedule: Q04DX003 (ip), vehicle: saline 100 % of control | dose: 25.0 mg/kg/injection, schedule: Q04DX003 (ip), vehicle: saline 103 % of control | dose: 50.0 mg/kg/injection, schedule: Q04DX003 (ip), vehicle: saline 102 % of control | dose: 100.0 mg/kg/injection, schedule: Q04DX003 (ip), vehicle: saline 105 % of control | dose: 200.0 mg/kg/injection, schedule: Q04DX003 (ip), vehicle: saline 102 % of control

NNC(=O)c1cccc([N+](=O)[O-])c1
inactive: [2] 109 % of control

CN(C)CCNc1ccc(NCCN(C)C)c2c1C(=O)c1ccccc1C2=O
inactive: dose: 3.75 mg/kg/injection, schedule: Q01DX009 (ip), vehicle: saline with Tween-80 104 % of control | dose: 7.5 mg/kg/injection, schedule: Q01DX009 (ip), vehicle: saline with Tween-80 107 % of control | dose: 15.0 mg/kg/injection, schedule: Q01DX009 (ip), vehicle: saline with Tween-80 117 % of control | dose: 60.0 mg/kg/injection, schedule: Q01DX009 (ip), vehicle: saline with Tween-80 100 % of control
active: dose: 30.0 mg/kg/injection, schedule: Q01DX009 (ip), vehicle: saline with Tween-80 150 % of control

COc1cccc2c1C(=O)c1c(O)c3c(c(O)c1C2=O)C[C@@](O)(C(=O)CN1CCN(C)CC1)C[C@@H]3OC1CC(N)C(O)C(C)O1 (some centres not stated)
inactive: dose: 6.25 mg/kg/injection, schedule: Q04DX003 (ip), vehicle: water 88 % of control | dose: 12.5 mg/kg/injection, schedule: Q04DX003 (ip), vehicle: water 90 % of control | dose: 25.0 mg/kg/injection, schedule: Q04DX003 (ip), vehicle: water 90 % of control | dose: 50.0 mg/kg/injection, schedule: Q04DX003 (ip), vehicle: water 91 % of control | dose: 100.0 mg/kg/injection, schedule: Q04DX003 (ip), vehicle: water 86 % of control
